Values after ≈ are worked out from the molar mass of the structure shown. Active and inactive are the calls of the source. No cut-off for these calls is given here. Some results are limits rather than exact numbers.

This is an account of results in ChEMBL document CHEMBL3352042, “Synthesis of novel benzimidazole functionalized chiral thioureas and evaluation of their antibacterial and anticancer activities” (Bioorg Med Chem Lett, 2014).

One experiment has as its system A549. Nature of the experiment: Cytotoxicity against human A549 cells by MTT assay. It counts as functional, cell-based. As to conditions: Homo sapiens, A549; read-out: IC50. In general terms: Tetrazolium dyes change colour on reduction, which living cells bring about.
The subject of the next experiment is Pseudomonas aeruginosa. Nature of the experiment: Antibacterial activity against Pseudomonas aeruginosa MTCC 2453 after 24 hrs by well diffusion method. The class given is functional. (A growth-free zone around the sample is the usual read-out of agar diffusion tests.)
The next experiment relates to HeLa. Nature of the experiment: Cytotoxicity against human HeLa cells by MTT assay. The class given is functional, cell-based.
Another experiment deals with Escherichia coli. The experiment in a line: Antibacterial activity against Escherichia coli MTCC 739 after 24 hrs by well diffusion method. The class given is functional.
For the next experiment, the system named is DU-145. The experiment in a line: Cytotoxicity against human DU145 cells by MTT assay. It counts as functional, cell-based.
Experiment [1] relates to Staphylococcus aureus. The experiment in a line: Antibacterial activity against Staphylococcus aureus MLS16 MTCC 2940 after 24 hrs by well diffusion method. The class given is functional.
For another experiment, the system named is Micrococcus luteus. Nature of the experiment: Antibacterial activity against Micrococcus luteus MTC 2470 after 24 hrs by well diffusion method. The class given is functional.
Experiment [2] concerns Staphylococcus aureus. The experiment in a line: Antibacterial activity against Staphylococcus aureus MTCC 96 after 24 hrs by well diffusion method. It counts as functional.
The subject of another experiment is Raoultella planticola. Nature of the experiment: Antibacterial activity against Klebsiella planticola MTCC 530 after 24 hrs by well diffusion method. It counts as functional.
Another experiment deals with Bacillus subtilis. The experiment in a line: Antibacterial activity against Bacillus subtilis MTCC 121 after 24 hrs by well diffusion method. It counts as functional.
Another experiment relates to MCF7. Nature of the experiment: Cytotoxicity against human MCF7 cells by MTT assay. The class given is functional, cell-based. As to conditions: Homo sapiens, MCF7; read-out: IC50.
The mark [3] stands for this setting: Homo sapiens, HeLa, read-out: IC50.
[4] abbreviates: Homo sapiens, DU-145, read-out: IC50.

By IC50 is commonly meant the concentration needed to halve the response being measured. One may read the MIC as the lowest concentration that inhibits growth of the organism. On to `CC(C)C[C@@H](NC(=S)NCc1ccccc1)c1nc2ccccc2[nH]1`, for which the IC50 stood at 22.4 µM in the experiment with A549, 21.2 µM with HeLa (setting [3]), 21.2 µM with DU-145 (setting [4]) and 18.2 µM in the experiment with MCF7. Moreover, the MIC result in the experiment on Pseudomonas aeruginosa, in the experiment on Escherichia coli, with Staphylococcus aureus [1], in the experiment with Micrococcus luteus, in the experiment with Staphylococcus aureus [2] and in the experiment with Raoultella planticola was “inactive” each time. In the experiment with Bacillus subtilis, the MIC entry was “inactive”.

With `CC(C)C[C@@H](NC(=S)Nc1cc(C(F)(F)F)cc(C(F)(F)F)c1)c1nc2ccccc2[nH]1`, the IC50 is 10.2 µM in the experiment on A549, 10.4 µM in the experiment on HeLa (setting [3]), 16.5 µM with DU-145 (setting [4]) and 91 µM in the experiment with MCF7. The MIC result in the experiment on Pseudomonas aeruginosa, in the experiment on Escherichia coli, with Staphylococcus aureus [1], in the experiment on Micrococcus luteus, with Staphylococcus aureus [2] and in the experiment on Raoultella planticola was “inactive” each time. Moreover, in the experiment on Bacillus subtilis, the MIC result was “inactive”.

Regarding `CC(C)[C@H](NC(=S)Nc1ccccc1)c1nc2ccccc2[nH]1`, the IC50 in the experiment on A549 was 5.2 µM; in the experiment on HeLa (setting [3]), 11.1 µM; with DU-145 (setting [4]) it was 12.3 µM; in the experiment on MCF7, 9.8 µM. Moreover, the MIC is more than 200 µg/mL with Pseudomonas aeruginosa (MTCC 2453, 24 h); more than 200 µg/mL in the experiment with Escherichia coli (MTCC 739, 24 h); more than 200 µg/mL in the experiment with Staphylococcus aureus [1] (MLS16 MTCC 2940, 24 h); more than 200 µg/mL in the experiment with Micrococcus luteus (MTC 2470, 24 h); more than 200 µg/mL in the experiment on Staphylococcus aureus [2] (MTCC 96, 24 h); more than 200 µg/mL in the experiment with Raoultella planticola (MTCC 530, 24 h). For the same molecule, the MIC in the experiment on Bacillus subtilis (MTCC 121, 24 h) is more than 200 µg/mL.

With `CC(C)C[C@H](NC(=S)Nc1cc(C(F)(F)F)cc(C(F)(F)F)c1)c1nc2ccccc2[nH]1`, the IC50 came to 17.4 µM in the experiment on A549, 18.1 µM in the experiment with HeLa (setting [3]), 17.2 µM in the experiment on DU-145 (setting [4]) and 16.3 µM with MCF7. The MIC in the experiment with Pseudomonas aeruginosa (MTCC 2453, 24 h) came to 25 µg/mL (≈ 52.7 µM); against Escherichia coli (MTCC 739, 24 h), 12.5 µg/mL (≈ 26.3 µM); in the experiment with Staphylococcus aureus [1] (MLS16 MTCC 2940, 24 h), 12.5 µg/mL (≈ 26.3 µM); with Micrococcus luteus (MTC 2470, 24 h), 6.25 µg/mL (≈ 13.2 µM); in the experiment with Staphylococcus aureus [2] (MTCC 96, 24 h), 25 µg/mL (≈ 52.7 µM); in the experiment on Raoultella planticola (MTCC 530, 24 h), 12.5 µg/mL (≈ 26.3 µM). The molecule further gave an MIC against Bacillus subtilis (MTCC 121, 24 h) of 12.5 µg/mL (≈ 26.3 µM).

Regarding `CC(C)C[C@@H](NC(=S)Nc1ccccc1)c1nc2ccccc2[nH]1`, the IC50 in the experiment on A549 amounted to 18.7 µM; in the experiment with HeLa (setting [3]), 12.1 µM; with DU-145 (setting [4]) it was 20 µM; in the experiment on MCF7 it was 11.9 µM. The MIC entry in the experiment with Pseudomonas aeruginosa, with Escherichia coli, in the experiment with Staphylococcus aureus [1], in the experiment on Micrococcus luteus, in the experiment on Staphylococcus aureus [2] and in the experiment with Raoultella planticola was “inactive” each time. The MIC result with Bacillus subtilis was “inactive”.

For `C[C@H](NC(=S)Nc1ccccc1)c1nc2ccccc2[nH]1`, the IC50 is 188 µM in the experiment with A549, “Not Active” in the experiment with HeLa (hela), “Not Active” in the experiment on DU-145 (du-145) and 196 µM in the experiment on MCF7. In addition, the MIC in the experiment with Pseudomonas aeruginosa (MTCC 2453, 24 h) is more than 200 µg/mL; with Escherichia coli (MTCC 739, 24 h), more than 200 µg/mL; in the experiment with Staphylococcus aureus [1] (MLS16 MTCC 2940, 24 h), more than 200 µg/mL; in the experiment on Micrococcus luteus (MTC 2470, 24 h), more than 200 µg/mL; with Staphylococcus aureus [2] (MTCC 96, 24 h) it was 12.5 µg/mL (≈ 42.2 µM); against Raoultella planticola (MTCC 530, 24 h), more than 200 µg/mL. Also, the lowest concentration to inhibit growth in the experiment with Bacillus subtilis (MTCC 121, 24 h) (MIC) was 12.5 µg/mL (≈ 42.2 µM).

For `S=C(NCc1ccccc1)N[C@H](Cc1ccccc1)c1nc2ccccc2[nH]1`, the IC50 in the experiment with A549 was 26.5 µM; in the experiment on HeLa (hela) it was “Not Active”; with DU-145 (setting [4]), 24.3 µM; in the experiment on MCF7 it was 32.2 µM. The MIC entry in the experiment with Pseudomonas aeruginosa, with Escherichia coli, with Staphylococcus aureus [1], with Micrococcus luteus, in the experiment with Staphylococcus aureus [2] and in the experiment on Raoultella planticola was “inactive” throughout. Besides, the MIC result with Bacillus subtilis is “inactive”.
